Source: ChEMBL document CHEMBL1140446, “Designed multiple ligands. An emerging drug discovery paradigm” (J Med Chem, 2005)

Legend:
[1] = target: T1, Peroxisome proliferator-activated receptor alpha (Homo sapiens, UniProt Q07869)
T1 sequence (Q07869 whole entry): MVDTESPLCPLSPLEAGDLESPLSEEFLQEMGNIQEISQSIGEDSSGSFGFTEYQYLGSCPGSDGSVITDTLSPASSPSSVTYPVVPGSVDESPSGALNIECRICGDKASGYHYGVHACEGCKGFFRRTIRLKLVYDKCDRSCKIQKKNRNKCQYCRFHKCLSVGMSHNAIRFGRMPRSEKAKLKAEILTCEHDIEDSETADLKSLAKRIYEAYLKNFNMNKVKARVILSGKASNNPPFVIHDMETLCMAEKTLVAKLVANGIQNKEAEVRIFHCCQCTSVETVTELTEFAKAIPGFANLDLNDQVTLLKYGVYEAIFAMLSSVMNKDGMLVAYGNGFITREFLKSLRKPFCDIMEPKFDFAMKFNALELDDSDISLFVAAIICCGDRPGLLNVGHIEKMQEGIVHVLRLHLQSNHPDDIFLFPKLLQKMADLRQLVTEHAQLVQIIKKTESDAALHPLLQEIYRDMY
Description: Binding affinity towards peroxisome proliferator activated receptor alpha

[2] = target: T2, Peroxisome proliferator-activated receptor gamma (Homo sapiens, UniProt P37231)
T2 sequence (P37231 whole entry): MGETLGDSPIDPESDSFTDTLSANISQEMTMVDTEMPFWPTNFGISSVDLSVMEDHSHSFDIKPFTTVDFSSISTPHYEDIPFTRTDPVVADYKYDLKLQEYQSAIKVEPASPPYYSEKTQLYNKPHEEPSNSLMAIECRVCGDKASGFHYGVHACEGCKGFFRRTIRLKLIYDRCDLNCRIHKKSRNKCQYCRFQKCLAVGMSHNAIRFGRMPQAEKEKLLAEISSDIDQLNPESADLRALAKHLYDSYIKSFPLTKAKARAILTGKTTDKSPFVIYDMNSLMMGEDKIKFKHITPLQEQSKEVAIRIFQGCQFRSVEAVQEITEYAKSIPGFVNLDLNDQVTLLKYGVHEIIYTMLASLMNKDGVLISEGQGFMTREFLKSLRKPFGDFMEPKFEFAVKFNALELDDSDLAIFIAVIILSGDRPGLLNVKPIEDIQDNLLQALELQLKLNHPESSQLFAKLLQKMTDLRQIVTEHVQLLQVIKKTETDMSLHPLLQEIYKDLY
Description: Binding affinity towards peroxisome proliferator activated receptor gamma

[3] = target: T3, Type-2 angiotensin II receptor (Homo sapiens, UniProt P50052)
T3 sequence (P50052 whole entry): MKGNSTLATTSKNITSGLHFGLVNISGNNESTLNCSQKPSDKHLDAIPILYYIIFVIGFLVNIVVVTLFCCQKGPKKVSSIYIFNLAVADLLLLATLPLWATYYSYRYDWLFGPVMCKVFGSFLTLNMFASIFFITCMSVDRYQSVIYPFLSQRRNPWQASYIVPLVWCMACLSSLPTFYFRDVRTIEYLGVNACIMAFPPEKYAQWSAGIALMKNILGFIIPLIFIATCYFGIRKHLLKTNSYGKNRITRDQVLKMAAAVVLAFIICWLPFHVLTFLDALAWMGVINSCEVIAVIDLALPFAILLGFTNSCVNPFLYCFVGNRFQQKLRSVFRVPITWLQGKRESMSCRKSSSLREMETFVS
Description: Inhibitory concentration against angiotensin II receptor, type 2

[4] = target: T4, Type-1 angiotensin II receptor (Homo sapiens, UniProt P30556)
T4 sequence (P30556 whole entry): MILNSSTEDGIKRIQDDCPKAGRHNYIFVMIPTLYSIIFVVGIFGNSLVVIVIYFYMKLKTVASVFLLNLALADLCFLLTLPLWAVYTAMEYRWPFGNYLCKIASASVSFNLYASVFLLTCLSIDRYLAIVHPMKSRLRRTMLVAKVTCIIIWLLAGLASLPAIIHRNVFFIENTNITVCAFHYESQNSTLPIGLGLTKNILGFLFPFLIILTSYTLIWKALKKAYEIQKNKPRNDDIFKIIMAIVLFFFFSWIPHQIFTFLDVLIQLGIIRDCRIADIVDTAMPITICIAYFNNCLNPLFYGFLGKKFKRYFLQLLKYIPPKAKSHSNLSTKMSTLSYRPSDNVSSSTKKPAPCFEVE
Description: (§1) Inhibitory concentration against angiotensin II receptor, type 1

Endothelin-1 receptor = target: T5, Endothelin-1 receptor (Homo sapiens, UniProt P25101)
T5 sequence (P25101 whole entry): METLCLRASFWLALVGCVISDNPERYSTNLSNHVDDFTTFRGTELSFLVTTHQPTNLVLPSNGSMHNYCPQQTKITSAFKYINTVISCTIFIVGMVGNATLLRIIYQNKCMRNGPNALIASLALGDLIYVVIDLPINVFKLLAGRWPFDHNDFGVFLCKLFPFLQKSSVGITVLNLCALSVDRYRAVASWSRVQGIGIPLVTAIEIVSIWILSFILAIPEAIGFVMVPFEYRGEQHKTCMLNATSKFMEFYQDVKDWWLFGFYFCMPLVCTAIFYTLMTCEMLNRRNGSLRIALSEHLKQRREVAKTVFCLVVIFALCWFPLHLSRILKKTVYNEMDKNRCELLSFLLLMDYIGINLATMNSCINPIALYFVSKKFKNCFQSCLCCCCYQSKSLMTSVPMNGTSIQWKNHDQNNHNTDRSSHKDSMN
Description: Inhibitory concentration against endothelin receptor type A

[5] = target: T4, Type-1 angiotensin II receptor; remark: listed apart in the source
Description: as §1

[6] = target: Prostaglandin G/H synthase 1 (Homo sapiens, UniProt P23219)
Description: Inhibitory concentration against prostaglandin G/H synthase 1

[7] = target: T6, Polyunsaturated fatty acid 5-lipoxygenase (Homo sapiens, UniProt P09917)
T6 sequence (P09917 whole entry): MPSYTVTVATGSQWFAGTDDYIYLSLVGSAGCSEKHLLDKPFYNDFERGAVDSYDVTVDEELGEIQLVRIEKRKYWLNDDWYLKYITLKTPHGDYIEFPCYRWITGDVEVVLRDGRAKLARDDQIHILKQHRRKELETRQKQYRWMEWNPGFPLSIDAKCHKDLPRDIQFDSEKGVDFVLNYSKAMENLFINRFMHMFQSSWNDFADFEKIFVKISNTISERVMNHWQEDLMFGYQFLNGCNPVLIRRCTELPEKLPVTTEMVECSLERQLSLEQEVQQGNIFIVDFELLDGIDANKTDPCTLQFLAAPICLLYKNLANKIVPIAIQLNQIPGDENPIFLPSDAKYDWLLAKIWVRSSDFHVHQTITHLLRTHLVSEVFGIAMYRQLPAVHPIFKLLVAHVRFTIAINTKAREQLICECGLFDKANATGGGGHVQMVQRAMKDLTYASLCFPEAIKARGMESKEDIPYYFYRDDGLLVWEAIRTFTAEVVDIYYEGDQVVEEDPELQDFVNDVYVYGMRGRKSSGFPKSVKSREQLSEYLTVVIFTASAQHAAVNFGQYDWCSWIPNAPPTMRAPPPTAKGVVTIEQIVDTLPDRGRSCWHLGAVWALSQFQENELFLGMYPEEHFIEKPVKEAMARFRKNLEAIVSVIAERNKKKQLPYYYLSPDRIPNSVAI
Description: Inhibitory concentration against arachidonate 5-lipoxygenase

Thromboxane-A synthase = Thromboxane-A synthase (Homo sapiens, UniProt P24557)
Description: Inhibitory concentration against thromboxane A2 synthase

Thromboxane A2 receptor = target: T7, Thromboxane A2 receptor (Homo sapiens, UniProt P21731)
T7 sequence (P21731 whole entry): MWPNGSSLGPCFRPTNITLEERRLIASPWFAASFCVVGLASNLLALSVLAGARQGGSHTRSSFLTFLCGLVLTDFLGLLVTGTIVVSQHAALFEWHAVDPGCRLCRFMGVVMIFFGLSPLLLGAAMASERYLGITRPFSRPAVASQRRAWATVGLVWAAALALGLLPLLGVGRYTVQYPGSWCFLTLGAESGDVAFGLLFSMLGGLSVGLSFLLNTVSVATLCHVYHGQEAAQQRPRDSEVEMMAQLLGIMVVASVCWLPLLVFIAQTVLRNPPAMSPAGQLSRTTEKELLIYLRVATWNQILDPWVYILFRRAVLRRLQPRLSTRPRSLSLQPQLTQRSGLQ
Description: Inhibition constant against thromboxane A2 receptor to prostaglandin H2 receptor

Histamine H1 receptor = Histamine H1 receptor (Homo sapiens, UniProt P35367)
Description: Inhibition constant against histamine H1 receptor

Substance-K receptor = target: T8, Substance-K receptor (Homo sapiens, UniProt P21452)
T8 sequence (P21452 whole entry): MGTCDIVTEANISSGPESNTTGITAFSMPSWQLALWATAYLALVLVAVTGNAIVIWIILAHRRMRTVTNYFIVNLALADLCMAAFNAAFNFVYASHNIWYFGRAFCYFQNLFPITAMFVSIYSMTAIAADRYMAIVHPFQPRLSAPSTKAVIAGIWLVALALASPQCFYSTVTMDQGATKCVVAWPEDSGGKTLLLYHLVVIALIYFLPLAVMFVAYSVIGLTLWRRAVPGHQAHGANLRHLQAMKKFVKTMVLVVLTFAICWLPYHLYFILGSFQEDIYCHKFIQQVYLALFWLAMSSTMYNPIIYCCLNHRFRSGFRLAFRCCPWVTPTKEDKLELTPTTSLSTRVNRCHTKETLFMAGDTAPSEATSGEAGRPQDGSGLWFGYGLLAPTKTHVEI
Description: Inhibitory concentration against tachykinin receptor 2

Substance-P receptor = Substance-P receptor (Homo sapiens, UniProt P25103); experiment: Inhibitory concentration against tachykinin receptor 1
Chain of Substance-P receptor (P25103 whole entry): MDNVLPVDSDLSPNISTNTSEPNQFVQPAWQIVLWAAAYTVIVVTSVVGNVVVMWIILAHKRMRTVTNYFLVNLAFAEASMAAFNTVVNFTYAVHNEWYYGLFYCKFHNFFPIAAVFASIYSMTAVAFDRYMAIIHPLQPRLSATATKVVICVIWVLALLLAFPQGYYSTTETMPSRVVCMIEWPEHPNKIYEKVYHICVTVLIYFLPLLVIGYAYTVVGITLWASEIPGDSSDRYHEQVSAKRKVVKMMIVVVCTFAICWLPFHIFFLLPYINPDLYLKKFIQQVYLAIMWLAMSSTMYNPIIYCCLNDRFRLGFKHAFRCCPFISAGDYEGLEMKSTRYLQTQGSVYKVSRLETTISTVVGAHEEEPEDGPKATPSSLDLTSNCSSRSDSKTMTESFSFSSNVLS

Chain of Thromboxane-A synthase (P24557 whole entry): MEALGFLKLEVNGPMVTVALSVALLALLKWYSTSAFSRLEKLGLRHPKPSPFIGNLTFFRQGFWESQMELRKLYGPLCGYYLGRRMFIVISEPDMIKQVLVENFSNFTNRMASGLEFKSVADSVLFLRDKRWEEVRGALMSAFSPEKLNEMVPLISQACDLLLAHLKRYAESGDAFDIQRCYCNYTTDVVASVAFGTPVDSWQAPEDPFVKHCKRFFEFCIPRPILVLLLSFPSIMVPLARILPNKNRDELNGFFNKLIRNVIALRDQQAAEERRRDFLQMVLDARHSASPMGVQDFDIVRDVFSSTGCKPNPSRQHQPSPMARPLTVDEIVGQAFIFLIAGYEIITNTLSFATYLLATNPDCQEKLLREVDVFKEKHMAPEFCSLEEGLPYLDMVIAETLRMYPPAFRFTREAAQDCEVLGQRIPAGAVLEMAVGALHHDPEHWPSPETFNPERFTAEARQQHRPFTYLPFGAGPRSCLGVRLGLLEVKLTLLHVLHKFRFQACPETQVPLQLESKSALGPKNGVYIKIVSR
Chain of Histamine H1 receptor (P35367 whole entry): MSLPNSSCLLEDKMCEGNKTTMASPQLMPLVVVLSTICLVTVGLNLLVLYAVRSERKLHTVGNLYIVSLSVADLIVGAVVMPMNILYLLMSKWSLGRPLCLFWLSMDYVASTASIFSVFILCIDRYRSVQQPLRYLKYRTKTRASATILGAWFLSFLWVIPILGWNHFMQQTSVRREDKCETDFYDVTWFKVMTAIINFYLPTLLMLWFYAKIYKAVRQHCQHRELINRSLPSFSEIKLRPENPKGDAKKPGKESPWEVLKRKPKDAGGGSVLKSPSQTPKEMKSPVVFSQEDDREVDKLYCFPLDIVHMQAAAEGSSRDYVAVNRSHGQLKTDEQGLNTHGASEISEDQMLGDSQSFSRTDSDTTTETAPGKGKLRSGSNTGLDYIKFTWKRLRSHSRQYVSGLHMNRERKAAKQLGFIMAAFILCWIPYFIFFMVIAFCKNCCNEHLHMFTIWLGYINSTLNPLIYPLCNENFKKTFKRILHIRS
Chain of Prostaglandin G/H synthase 1 (P23219 whole entry): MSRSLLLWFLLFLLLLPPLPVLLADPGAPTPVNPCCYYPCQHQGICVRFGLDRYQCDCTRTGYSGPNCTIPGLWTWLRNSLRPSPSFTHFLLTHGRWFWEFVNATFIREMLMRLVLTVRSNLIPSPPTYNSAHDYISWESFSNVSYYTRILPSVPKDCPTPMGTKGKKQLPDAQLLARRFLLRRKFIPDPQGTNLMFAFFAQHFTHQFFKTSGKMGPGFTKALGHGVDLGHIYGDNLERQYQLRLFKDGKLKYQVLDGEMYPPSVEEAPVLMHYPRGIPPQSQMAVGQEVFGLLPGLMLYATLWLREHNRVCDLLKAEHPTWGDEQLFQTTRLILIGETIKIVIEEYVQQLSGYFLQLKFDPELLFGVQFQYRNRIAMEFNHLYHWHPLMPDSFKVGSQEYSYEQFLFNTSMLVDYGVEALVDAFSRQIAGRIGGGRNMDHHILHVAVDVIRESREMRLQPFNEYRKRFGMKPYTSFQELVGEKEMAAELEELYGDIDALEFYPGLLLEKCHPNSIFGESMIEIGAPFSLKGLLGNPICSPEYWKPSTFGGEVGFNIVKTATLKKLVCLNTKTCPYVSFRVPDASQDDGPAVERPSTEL

CC(Cc1ccccc1)(Oc1ccc(Cl)cc1)C(=O)O (configuration not stated)
IC50 [1]: 4400 nM | IC50 [2]: 3900 nM

Cc1oc(-c2ccccc2)nc1CCOc1ccc(OC(C)(C)C(=O)O)cc1
IC50 [1]: 1740 nM | IC50 [2]: 2570 nM

CCCCc1nc2ccc(NC(=O)N(C)C(C)C)cc2c(=O)n1Cc1ccc(-c2ccccc2-c2nnn[nH]2)cc1
IC50 [3]: 4500 nM | IC50 [4]: 0.1 nM

Cc1onc(NS(=O)(=O)c2ccccc2-c2ccc(-c3ncco3)cc2CN(C)C(=O)CC(C)(C)C)c1C [EDONENTAN]
Ki (Endothelin-1 receptor): 10 nM | Ki [5]: > 10 nM

COC1(c2cc(F)cc(OCc3cc(-c4ccccc4)n(-c4ccc(S(C)(=O)=O)cc4)n3)c2)CCOCC1
IC50 [6]: > 10 nM

CCCCC1=NC2(CCCC2)C(=O)N1Cc1ccc(-c2ccccc2S(=O)(=O)Nc2noc(C)c2C)c(COCC)c1
Ki (Endothelin-1 receptor): 9.3 nM | Ki [5]: 0.8 nM

CCCCCN(C(=O)c1ccccc1)c1ccc2nc(CCC)n(Cc3ccc(-c4ccccc4-c4nn[nH]n4)cc3)c(=O)c2c1
IC50 [3]: 0.7 nM | IC50 [4]: 1.7 nM

CC1(C)Cc2c(-c3ccccc3)c(-c3ccc(Cl)cc3)c(CC(=O)O)n2C1 [LICOFELONE]
IC50 [6]: 160 nM | IC50 [7]: 210 nM

CNc1nc2c(Cc3cccnc3)c(C)c(O)c(C)c2s1
IC50 [7]: 100 nM | IC50 (Thromboxane-A synthase): 90 nM

O=C(O)c1ccc2c(c1)/C(=C/Cn1cnc3ccccc31)c1ccccc1CO2
Ki (Thromboxane A2 receptor): 15 nM

CN(C)C/C=C1\c2ccccc2COc2ccc(CC(=O)O)cc21
Ki (Histamine H1 receptor): 11 nM | Ki (Thromboxane A2 receptor): > 1000 nM

Cc1c(Cc2ccncc2)n(CCNS(=O)(=O)c2ccc(F)cc2)c2ccc(CCC(=O)O)cc12
IC50 (Thromboxane-A synthase): 78 nM

O=C(O)Cc1ccc2c(c1)C(=CCN1CCC(Cc3ccccc3)CC1)c1ccccc1CO2
Ki (Histamine H1 receptor): 20 nM | Ki (Thromboxane A2 receptor): 740 nM

COc1cc(C(=O)N2CC[C@@](CCN3CCC(C(N)=O)(c4ccccc4)CC3)(c3ccc(Cl)c(Cl)c3)C2)cc(OC)c1OC
IC50 (Substance-K receptor): 8.4 nM | IC50 (Substance-P receptor): 3.1 nM

NC(=O)C1(c2ccccc2)CCN(CC[C@@]2(c3ccc(Cl)c(Cl)c3)CCN(C(=O)c3ccccc3)C2)CC1
IC50 (Substance-K receptor): 2.25 nM | IC50 (Substance-P receptor): 161 nM
